Assay results from US20120029187A1, “HALOALKYLSULFONANILIDE DERIVATIVE” (Nissan Chemical Industries, Ltd., priority 2009, published 2012).

Columns and labels:
Format in all cases: in vivo
[1] = tested on: ducksalad; assay: Test Example 2: herbicidal effects during the vegetation period under submerged conditions; settings: treatment during the vegetation period under submerged conditions; dose 2.52 g/a
In short: (§1)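 Barnyardgrass, bulrush and ducksalad were co-sown in alluvial soil flooded to 4 cm and grown in a greenhouse at 25 to 30° C. At the 1- or 2-leaf stage, water-diluted emulsifiable concentrates went onto the water surface at set doses (g/a). Herbicidal effect was scored three weeks later on a graded scale.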

[2] = tested on: barnyardgrass; assay: as above; settings: treatment during the vegetation period under submerged conditions; dose 2.52 g/a
In short: as §1

[3] = tested on: bulrush; assay: as above; settings: treatment during the vegetation period under submerged conditions; dose 2.52 g/a
In short: as §1

[4] = tested on: common lambsquater; assay: Test Example 4: herbicidal effect in foliage treatment; settings: dose 6.3 g/a
In short: (§2)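 Visual herbicidal scores on a graded scale were recorded three weeks after foliar application. Compounds went on as diluted emulsifiable concentrates at predetermined g/a to plants grown 14 days in a 25 to 30° C greenhouse.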

[5] = tested on: giant foxtail; assay: as above; settings: dose 6.3 g/a
In short: as §2

[6] = tested on: beadstraw; assay: as above; settings: dose 6.3 g/a
In short: as §2

[7] = tested on: wild oat; assay: as above; settings: dose 6.3 g/a
In short: as §2

[8] = tested on: large crabgrass; assay: as above; settings: dose 6.3 g/a
In short: as §2

[9] = tested on: redroot pigweed; assay: as above; settings: dose 6.3 g/a
In short: as §2

[10] = tested on: common chickweed; assay: as above; settings: dose 6.3 g/a
In short: as §2

[11] = tested on: barnyardgrass; assay: as above; settings: dose 6.3 g/a
In short: as §2

[12] = tested on: water foxtail; assay: as above; settings: dose 6.3 g/a
In short: as §2

[13] = tested on: common ragweed; assay: as above; settings: dose 6.3 g/a
In short: as §2

[14] = tested on: Italian ryegrass; assay: as above; settings: dose 6.3 g/a
In short: as §2

[15] = tested on: common lambsquater; assay: Test Example 3: herbicidal effects in soil treatment; settings: dose 6.3 g/a
In short: (§3)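 Seeds were sown in sterilized diluvial soil and covered with about 1.5 cm of soil. Compounds, formulated as emulsifiable concentrates and diluted with water, were sprayed evenly over the soil surface at set doses in g/a. Herbicidal effect was scored on a rating scale three weeks later.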

[16] = tested on: giant foxtail; assay: as above; settings: dose 6.3 g/a
In short: as §3

[17] = tested on: wild oat; assay: as above; settings: dose 6.3 g/a
In short: as §3

[18] = tested on: large crabgrass; assay: as above; settings: dose 6.3 g/a
In short: as §3

[19] = tested on: redroot pigweed; assay: as above; settings: dose 6.3 g/a
In short: as §3

[20] = tested on: common chickweed; assay: as above; settings: dose 6.3 g/a
In short: as §3

[21] = tested on: barnyardgrass; assay: as above; settings: dose 6.3 g/a
In short: as §3

[22] = tested on: water foxtail; assay: as above; settings: dose 6.3 g/a
In short: as §3

[23] = tested on: common ragweed; assay: as above; settings: dose 6.3 g/a
In short: as §3

[24] = tested on: Italian ryegrass; assay: as above; settings: dose 6.3 g/a
In short: as §3

[25] = tested on: ducksalad; assay: Test Example 1: herbicidal effects in preemergence treatment under submerged conditions; settings: dose 2.52 g/a
In short: (§4)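 Flooded-paddy preemergence assay; EC diluted with water, surface-applied at weed seeding; doses g/a; rice transplanted at 2.5 leaves; 0–5 mortality score after 3 weeks.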

[26] = tested on: barnyardgrass; assay: as above; settings: dose 2.52 g/a
In short: as §4

[27] = tested on: bulrush; assay: as above; settings: dose 2.52 g/a
In short: as §4

[28] = three weeks after the application

## CC1(C)CC(=O)N(Cc2ccccc2N(C(=O)C2CC2)S(=O)(=O)C(F)(F)F)CO1 [II-20]
[1]
  C: ducksalad, herbicidal effect (evaluation scale 0-5): 5 (mortality of 90% or above (nearly complete death))
[2]
  A: barnyardgrass, herbicidal effect (evaluation scale 0-5): 5 (mortality of 90% or above (nearly complete death))
[3]
  B: bulrush, herbicidal effect (evaluation scale 0-5): 5 (mortality of 90% or above (nearly complete death))
[4]; three weeks after application
  L: common lambsquater, herbicidal effect: 0 (mortality of less than 5% (almost ineffective))
[5]; three weeks after application
  E: giant foxtail, herbicidal effect: 5 (mortality of 90% or above (nearly complete death))
[6]; three weeks after application
  O: beadstraw, herbicidal effect: 4 (mortality of at least 70% and less than 90%)
[7]; three weeks after application
  F: wild oat, herbicidal effect: 0 (mortality of less than 5% (almost ineffective))
[8]; three weeks after application
  D: large crabgrass, herbicidal effect: 5 (mortality of 90% or above (nearly complete death))
[9]; three weeks after application
  K: redroot pigweed, herbicidal effect: 0 (mortality of less than 5% (almost ineffective))
[10]; three weeks after application
  N: common chickweed, herbicidal effect: 3 (mortality of at least 40% and less than 70%)
[11]; three weeks after application
  A: barnyardgrass, herbicidal effect: 5 (mortality of 90% or above (nearly complete death))
[12]; three weeks after application
  G: water foxtail, herbicidal effect: 5 (mortality of 90% or above (nearly complete death))
[13]; three weeks after application
  J: common ragweed, herbicidal effect: 5 (mortality of 90% or above (nearly complete death))
[14]; three weeks after application
  H: Italian ryegrass, herbicidal effect: 4 (mortality of at least 70% and less than 90%)
[15]
  L: common lambsquater, herbicidal effect (evaluation scale 0-5): 0 (mortality of less than 5% (almost ineffective))
[16]
  E: giant foxtail, herbicidal effect (evaluation scale 0-5): 4 (mortality of at least 70% and less than 90%)
[17]
  F: wild oat, herbicidal effect (evaluation scale 0-5): 0 (mortality of less than 5% (almost ineffective))
[18]
  D: large crabgrass, herbicidal effect (evaluation scale 0-5): 4 (mortality of at least 70% and less than 90%)
[19]
  K: redroot pigweed, herbicidal effect (evaluation scale 0-5): 0 (mortality of less than 5% (almost ineffective))
[20]
  N: common chickweed, herbicidal effect (evaluation scale 0-5): 4 (mortality of at least 70% and less than 90%)
[21]
  A: barnyardgrass, herbicidal effect (evaluation scale 0-5): 5 (mortality of 90% or above (nearly complete death))
[22]
  G: water foxtail, herbicidal effect (evaluation scale 0-5): 5 (mortality of 90% or above (nearly complete death))
[23]
  J: common ragweed, herbicidal effect (evaluation scale 0-5): 4 (mortality of at least 70% and less than 90%)
[24]
  H: Italian ryegrass, herbicidal effect (evaluation scale 0-5): 5 (mortality of 90% or above (nearly complete death))
[25]
  C: ducksalad, herbicidal effect (evaluation scale 0-5): 5 (mortality of 90% or above (nearly complete death))
[26]
  A: barnyardgrass, herbicidal effect (evaluation scale 0-5): 5 (mortality of 90% or above (nearly complete death))
[27]
  B: bulrush, herbicidal effect (evaluation scale 0-5): 5 (mortality of 90% or above (nearly complete death))

## CC1(C)CC(=O)N(Cc2ccccc2NS(=O)(=O)C(F)(F)F)CO1 [II-17, 6,6-dimethyl-3-(2-trifluoromethanesulfonylaminobenzyl)-1,3-oxazinan-4-one]
[1]
  C: ducksalad, herbicidal effect (evaluation scale 0-5): 5 (mortality of 90% or above (nearly complete death))
[2]
  A: barnyardgrass, herbicidal effect (evaluation scale 0-5): 5 (mortality of 90% or above (nearly complete death))
[3]
  B: bulrush, herbicidal effect (evaluation scale 0-5): 5 (mortality of 90% or above (nearly complete death))
[4]; three weeks after application
  L: common lambsquater, herbicidal effect: 4 (mortality of at least 70% and less than 90%)
[5]; three weeks after application
  E: giant foxtail, herbicidal effect: 5 (mortality of 90% or above (nearly complete death))
[6]; three weeks after application
  O: beadstraw, herbicidal effect: 5 (mortality of 90% or above (nearly complete death))
[7]; three weeks after application
  F: wild oat, herbicidal effect: 0 (mortality of less than 5% (almost ineffective))
[8]; three weeks after application
  D: large crabgrass, herbicidal effect: 5 (mortality of 90% or above (nearly complete death))
[9]; three weeks after application
  K: redroot pigweed, herbicidal effect: 1 (mortality of at least 5% and less than 20%)
[10]; three weeks after application
  N: common chickweed, herbicidal effect: 4 (mortality of at least 70% and less than 90%)
[11]; three weeks after application
  A: barnyardgrass, herbicidal effect: 5 (mortality of 90% or above (nearly complete death))
[12]; three weeks after application
  G: water foxtail, herbicidal effect: 5 (mortality of 90% or above (nearly complete death))
[13]; three weeks after application
  J: common ragweed, herbicidal effect: 5 (mortality of 90% or above (nearly complete death))
[14]; three weeks after application
  H: Italian ryegrass, herbicidal effect: 4 (mortality of at least 70% and less than 90%)
[15]
  L: common lambsquater, herbicidal effect (evaluation scale 0-5): 2 (mortality of at least 20% and less than 40%)
[16]
  E: giant foxtail, herbicidal effect (evaluation scale 0-5): 5 (mortality of 90% or above (nearly complete death))
[17]
  F: wild oat, herbicidal effect (evaluation scale 0-5): 0 (mortality of less than 5% (almost ineffective))
[18]
  D: large crabgrass, herbicidal effect (evaluation scale 0-5): 5 (mortality of 90% or above (nearly complete death))
[19]
  K: redroot pigweed, herbicidal effect (evaluation scale 0-5): 1 (mortality of at least 5% and less than 20%)
[20]
  N: common chickweed, herbicidal effect (evaluation scale 0-5): 4 (mortality of at least 70% and less than 90%)
[21]
  A: barnyardgrass, herbicidal effect (evaluation scale 0-5): 5 (mortality of 90% or above (nearly complete death))
[22]
  G: water foxtail, herbicidal effect (evaluation scale 0-5): 5 (mortality of 90% or above (nearly complete death))
[23]
  J: common ragweed, herbicidal effect (evaluation scale 0-5): 5 (mortality of 90% or above (nearly complete death))
[24]
  H: Italian ryegrass, herbicidal effect (evaluation scale 0-5): 4 (mortality of at least 70% and less than 90%)
[25]
  C: ducksalad, herbicidal effect (evaluation scale 0-5): 5 (mortality of 90% or above (nearly complete death))
[26]
  A: barnyardgrass, herbicidal effect (evaluation scale 0-5): 5 (mortality of 90% or above (nearly complete death))
[27]
  B: bulrush, herbicidal effect (evaluation scale 0-5): 5 (mortality of 90% or above (nearly complete death))

## O=C1CCOCCN1Cc1ccccc1NS(=O)(=O)C(F)(F)F [Compound V-1]
[1]
  C: ducksalad, herbicidal effect (evaluation scale 0-5): 5 (mortality of 90% or above (nearly complete death))
[2]
  A: barnyardgrass, herbicidal effect (evaluation scale 0-5): 5 (mortality of 90% or above (nearly complete death))
[3]
  B: bulrush, herbicidal effect (evaluation scale 0-5): 5 (mortality of 90% or above (nearly complete death))
[4]; [28]
  L: common lambsquater, herbicidal effect: 4 (mortality of at least 70% and less than 90%)
[5]; [28]
  E: giant foxtail, herbicidal effect: 5 (mortality of 90% or above (nearly complete death))
[6]; [28]
  O: beadstraw, herbicidal effect: 4 (mortality of at least 70% and less than 90%)
[7]; [28]
  F: wild oat, herbicidal effect: 0 (mortality of less than 5% (almost ineffective))
[8]; [28]
  D: large crabgrass, herbicidal effect: 4 (mortality of at least 70% and less than 90%)
[9]; [28]
  K: redroot pigweed, herbicidal effect: 1 (mortality of at least 5% and less than 20%)
[10]; [28]
  N: common chickweed, herbicidal effect: 4 (mortality of at least 70% and less than 90%)
[11]; [28]
  A: barnyardgrass, herbicidal effect: 5 (mortality of 90% or above (nearly complete death))
[12]; [28]
  G: water foxtail, herbicidal effect: 5 (mortality of 90% or above (nearly complete death))
[13]; [28]
  J: common ragweed, herbicidal effect: 5 (mortality of 90% or above (nearly complete death))
[14]; [28]
  H: Italian ryegrass, herbicidal effect: 3 (mortality of at least 40% and less than 70%)
[15]
  herbicidal effect, L: common lambsquater: 5 (mortality of 90% or above (nearly complete death))
[16]
  herbicidal effect, E: giant foxtail: 4 (mortality of at least 70% and less than 90%)
[17]
  herbicidal effect, F: wild oat: 3 (mortality of at least 40% and less than 70%)
[18]
  herbicidal effect, D: large crabgrass: 0 (mortality of less than 5% (almost ineffective))
[19]
  herbicidal effect, K: redroot pigweed: 4 (mortality of at least 70% and less than 90%)
[20]
  herbicidal effect, N: common chickweed: 5 (mortality of 90% or above (nearly complete death))
[21]
  herbicidal effect, A: barnyardgrass: 5 (mortality of 90% or above (nearly complete death))
[22]
  herbicidal effect, G: water foxtail: 5 (mortality of 90% or above (nearly complete death))
[23]
  herbicidal effect, J: common ragweed: 5 (mortality of 90% or above (nearly complete death))
[24]
  herbicidal effect, H: Italian ryegrass: 3 (mortality of at least 40% and less than 70%)
[25]
  C: ducksalad, herbicidal effect (evaluation scale 0-5): 5 (mortality of 90% or above (nearly complete death))
[26]
  A: barnyardgrass, herbicidal effect (evaluation scale 0-5): 5 (mortality of 90% or above (nearly complete death))
[27]
  B: bulrush, herbicidal effect (evaluation scale 0-5): 5 (mortality of 90% or above (nearly complete death))
